The values that follow are results of earlier work, collected in paper PMC12042267, “Expanding the Family of Monosubstituted 15-Membered Pyridine-Based Macrocyclic Ligands for Mn(II) Complexation in the Context of MRI” (Inorganic Chemistry, 2025).

The conditions of data set [1]: Ca(II), cited from earlier work.
The conditions of data set [2]: Zn(II), cited from earlier work.
The conditions of data set [3]: cited from earlier work.
The conditions of data set [4]: Cu(II), cited from earlier work.
For data set [5] the following is noted: Mn(II) complex, cited from earlier work; for dissociation half-life t1/2: calculated for pH 7.4.
The conditions of data set [6]: cited from earlier work. This is another data set of the same source.
The conditions of data set [7]: cited from earlier work. This is another data set of the same source.
The conditions of data set [8]: cited from earlier work; for r1 (relaxivity): 20 MHz.
[9] abbreviates: Mn(II), I = 0.15 M NaCl, 25 °C ref 29.
The mark [10] stands for this setting: Mn(II), I = 0.15 M NaCl, 25 °C ref 22.

Read-outs that look alike come from different tables or passages of the source. Marks after values point to notes of the source that are not given here.

Turning to `O=C(O)CN1CCNCc2cccc(n2)CN(CC(=O)O)CC1` [3,6-PC2A], in data set [1] (I = 0.15 M NaCl, 25 °C ref 21), the “log KHML” value is 5.27 and the “log KML” value is on record as 9.57. Further, in data set [2] (I = 0.15 M NaCl, 25 °C ref 21), the “log KHML” value is 2.36 and the “log KML” value was 20.37. Further, in data set [3] (1.0 M NaCl ref 21), the “log K1^H” value is 10.31, the “log K2^H” value was 8.59, the “log K3^H” value is recorded as 3.92 and the “log K4^H” value is listed as 1.56. Besides, in data set [3] (I = 0.15 M NaCl, 25 °C ref 21), the “log K1^H” value is given as 10.72, the “log K2^H” value is recorded as 8.37, the “log K3^H” value is 3.81 and the “log K4^H” value is 1.26. In data set [4] (I = 0.15 M NaCl, 25 °C ref 21), the “log KHML” value was 2.37 and the “log KML” value is listed as 24.09. Also, in data set [5] (Cu(II) transmetalation ref 21), the k1 is 70 ± 1 M^–1 s^–1, the k2 entry was “(1.5 ± 0.4) × 10^5 M^–2 s^–1” and the k3 result is reported as “(2.6 ± 0.7) × 10^–2 M^–1 s^–1”. In addition, in data set [5] (Cu(II) ref 21), the “dissociation half-life t1/2” value was 2.63 days. The “log KML” value in data set [6] (Mn(II), I = 0.15 M NaCl, 25 °C ref 21) is given as 15.53. For the same compound, the “log KHML” value in data set [6] (Mn(II), I = 0.15 M NaCl, 25 °C, log KMnHL in Table 5 ref 21) is 3.06. Besides, the pMn in data set [6] (pH 7.4, cMn = clig = 10^–5 M ref 21) is 8.09.
For `c1cc2nc(c1)CNCCOc1ccccc1OCCNC2` [15-pyN3O2Ph], the “log KML” value in data set [1] (I = 0.15 M NaCl, 25 °C ref 29) is on record as 1.85; in data set [2] (I = 0.15 M NaCl, 25 °C ref 29), 7.70; in data set [4] (I = 0.15 M NaCl, 25 °C ref 29), 13.97; in data set [6] (setting [9]), 5.62. Moreover, the “log KML(OH)” value in data set [2] (I = 0.15 M NaCl, 25 °C ref 29) is -9.62; in data set [4] (I = 0.15 M NaCl, 25 °C ref 29), -8.95; in data set [6] (setting [9]), -10.50. Moreover, the “log K1^H” value in data set [3] (I = 0.15 M NaCl, 25 °C ref 29) is reported as 8.53. Also, in data set [3] (I = 0.15 M NaCl, 25 °C ref 29), the “log K2^H” value is 7.63. For the same compound, the pMn in data set [6] (pH 7.4, cMn = clig = 10^–5 M ref 30) is on record as 5.04^a.
Take `c1cc2nc(c1)CNCCOCCOCCNC2` [15-pyN3O2]: in data set [1] (0.1 M NMe4Cl ref 28), the “log KML” value is reported as 2.04 and the “log KML(OH)” value was -11.92. In data set [2] (0.1 M NMe4Cl ref 28), the “log KML” value is given as 8.58 and the “log KML(OH)” value was -10.31. Moreover, in data set [3] (0.1 M NMe4Cl ref 28), the “log K1^H” value is on record as 8.82 and the “log K2^H” value was 7.80. Also, in data set [4] (0.1 M NMe4Cl ref 28), the “log KML” value is 13.91, the “log KML(OH)” value is given as -8.34 and the “log KML(OH)2” value is -12.57. In addition, in data set [6] (Mn(II), 0.1 M NMe4Cl ref 28), the “log KML” value is listed as 7.18 and the “log KML(OH)” value is reported as -11.69. In addition, the pMn in data set [6] (pH 7.4, cMn = clig = 10^–5 M ref 28) was 5.28.
Turning to `O.O=C([O-])CN1CCOCCN(CC(=O)[O-])Cc2cccc(n2)C1.[Mn+2]` [Mn(3,9-OPC2A)], in data set [7], the “kex^298” value is on record as 5.3 ± 0.4 10^7 s^–1 and the “ΔH^‡” value is reported as 28.5 ± 1.7 kJ mol^–1. In addition, the r1p298 in data set [8] (determined at pH 7.4 ref 26) was 3.09 mM^–1 s^–1. For the same compound, the k0 result in data set [5] (Cu(II) transmetalation ref 26) was “(8.6 ± 1.1) × 10^–6 s^–1”.
On to `O.O.[Mn+2].c1cc2nc(c1)CNCCOc1ccccc1OCCNC2` [Mn(15-pyN3O2Ph)], for which, in data set [7], the AO/ℏ is on record as 43 10^6 rad s^–1, the “kex^298” value is given as 0.64 10^7 s^–1, the “ΔH^‡” value was 34.0 kJ mol^–1 and the “ΔS^‡” value is listed as “–1.0 J mol^–1K^–1”. In addition, the “r1 (relaxivity)” value in data set [8] (25 °C, 0.47 T ref 29) was 5.16/– mM^–1 s^–1.
`O.O.[Mn+2].c1cc2nc(c1)CNCCNCCNCCNC2` [Mn(15-pyN5)]: in data set [7], the “kex^298” value is 6.9 ± 0.7 10^7 s^–1 and the “ΔH^‡” value is listed as 37.7 ± 4 kJ mol^–1. For the same compound, the “r1 (relaxivity)” value in data set [8] (25 °C, 0.47 T ref 28) is given as 3.56 mM^–1 s^–1.
As for `O.O=C([O-])CN1CCOCCOCCNCc2cccc(n2)C1.[Mn+2]` [MnL1], in data set [7], the AO/ℏ is listed as 38.6 10^6 rad s^–1, the ErH is recorded as 15.0 ± 0.5 kJ mol^–1, the “kex^298” value is recorded as 0.45 ± 0.02 10^7 s^–1 and the “ΔH^‡” value is reported as 28.1 ± 2.1 kJ mol^–1. Also, in data set [7], the “ΔS^‡” value is listed as “–23 ± 6 J mol^–1K^–1”, the “Δ^2” value is 160 ± 10 10^18 s^–2, the “τrH^298” value is recorded as 35 ± 5 ps and the “τv^298” value is reported as 8 ± 1 ps. The “r1 (relaxivity)” value in data set [8] (25 °C, 0.47 T ref 30) is 2.45 mM^–1 s^–1. In addition, in data set [8] (37 °C, 0.47 T ref 30), the “r1 (relaxivity)” value is recorded as 2.08 mM^–1 s^–1.
On to `O=P(O)(O)CN1CCNCc2cccc(n2)CNCC1` [PC1P], for which the “log KML” value in data set [1] (0.1 M NMe4Cl ref 20) is reported as 6.85. For the same compound, in data set [2] (0.1 M NMe4Cl ref 20), the “log KHML” value is 5.19, the “log KML” value was 19.66 and the “log KML(OH)” value was 12.33. Also, in data set [3] (0.1 M NMe4Cl ref 20), the “log K1^H” value was 11.84, the “log K2^H” value is 9.64, the “log K3^H” value is 6.23 and the “log K4^H” value is 0.99. Moreover, in data set [4] (0.1 M NMe4Cl ref 20), the “log KHML” value is reported as 4.89 and the “log KML” value is recorded as 22.63. In addition, in data set [6] (Mn(II), 0.1 M NMe4Cl ref 20), the “log KML” value is recorded as 14.06 and the “log KML(OH)” value was -11.97. In addition, the “log KHML” value in data set [6] (Mn(II), 0.1 M NMe4Cl, log KMnHL in Table 5 ref 20) was 5.35. Moreover, in data set [6] (pH 7.4, cMn = clig = 10^–5 M ref 20), the pMn was 8.30.
Regarding `NCCN1CCN(CC(=O)O)Cc2cccc(n2)CN(CC(=O)O)CC1` [PC2A-EA], in data set [3] (I = 0.15 M NaCl, 25 °C ref 22), the “log K1^H” value was 11.34, the “log K2^H” value is 8.93, the “log K3^H” value was 6.91 and the “log K4^H” value is reported as 1.97. The k1 in data set [5] (Cu(II) transmetalation ref 22) is listed as 0.6 M^–1 s^–1. Moreover, the “dissociation half-life t1/2” value in data set [5] (Cu(II) ref 22) was 333 days. Besides, in data set [6] (setting [10]), the “log KH2ML” value is 2.50 and the “log KML” value was 19.01. Besides, the “log KHML” value in data set [6] (Mn(II), I = 0.15 M NaCl, 25 °C, log KMnHL in Table 5 ref 22) was 6.88. Also, the pMn in data set [6] (pH 7.4, cMn = clig = 10^–5 M ref 22) is given as 9.27.
As for `O.O.O.O.O.O.[Mn+2]` [[Mn(H2O)6]^2+], in data set [7], the AO/ℏ is 33.3 10^6 rad s^–1, the “kex^298” value is given as 2.1 10^7 s^–1, the “ΔH^‡” value was 32.9 kJ mol^–1 and the “ΔS^‡” value is given as “+5.7 J mol^–1K^–1”. Further, in data set [7], the “Δ^2” value is recorded as 5.6 10^18 s^–2, the “τrH^298” value is on record as 30 ps and the “τv^298” value is 3.3 ps. Also, the “r1 characteristic of free hexaaqua Mn(II)” value in data set [8] (1.41 T, 60 MHz, 25 °C ref 46) is on record as 6.7 mM^–1 s^–1. The “r1 (relaxivity)” value in data set [8] (25 °C, 0.47 T ref 54) is given as 8.36/– mM^–1 s^–1.
Consider `O.O=C([O-])CN1CCNCc2cccc(n2)CNCC1.[Mn+2]` [[Mn(PC1A)(H2O)]^+], for which, in data set [7], the “kex^298” value was 303 ± 19 10^7 s^–1 and the “ΔH^‡” value was 13.0 ± 1.6 kJ mol^–1. The r1p298 in data set [8] (determined at pH 7.4 ref 20) was 2.39 mM^–1 s^–1.
Take `O.O=P([O-])([O-])CN1CCNCc2cccc(n2)CNCC1.[Mn+2]` [[Mn(PC1P)(H2O)]]: in data set [7], the “kex^298” value is listed as 177 ± 9 10^7 s^–1 and the “ΔH^‡” value was 14.0 ± 1.2 kJ mol^–1. The r1p298 in data set [8] (determined at pH 7.4 ref 20) is 2.84 mM^–1 s^–1.
Consider `O.O=C([O-])CN1CCN(Cc2ccc(-c3ccccc3)cc2)CCN(CC(=O)[O-])Cc2cccc(n2)C1.[Mn+2]` [[Mn(PC2A-BP)(H2O)]], for which the “kex^298” value in data set [7] (Table 7, footnote h ref 29) is on record as 6.3 ± 0.2 10^7 s^–1. The “ΔH^‡” value in data set [7] (Table 7, footnote h ref 29) was 35.7 ± 0.1 kJ mol^–1. Further, the r1p298 in data set [8] (determined at pH 7.4 ref 29) was 4.96 mM^–1 s^–1; in data set [8] (measured in the presence of HSA ref 55), 35.7 mM^–1 s^–1.
For the compound `NCCN1CCN(CC(=O)[O-])Cc2cccc(n2)CN(CC(=O)[O-])CC1.O.[Mn+2]` [[Mn(PC2A-EA)(H2O)]], in data set [7], the “kex^298” value was 4.0 ± 0.2 10^7 s^–1. The r1p298 is recorded as 2.1 mM^–1 s^–1 in data set [8] (298 K and 0.47 T, pH 6.0 ref 22); 3.5 mM^–1 s^–1 in data set [8] (298 K and 0.47 T, pH 7.4 ref 22).
